According to patent US20080038288A1, “Prevention of damage in hippocampus of fetus/newborn infant due to maternal gestational hypertension” (priority 2006, published 2008):
Marks after values point to notes of the source that are not given here.

Key:
[1] = system: hippocampus dentate gyrus proliferating cells; assay: BrdU labeling, positive cell counts at hippocampus dentate gyrus of P30 rats born to L-NAME rats; assay type: in vivo, rat; conditions: dam given L-NAME plus gastric feeding E14-20, mean ± sd
Excerpt: (§1) Animal groups and administration of medication. Gestational hypertension (GH) was produced in rats using the L-NAME (a type of NOS inhibitor) method of Yallampalli et al. [Yallampalli et al., Am J Obstet Gynecol., 1993, 169:1316-1320]. Forty mature (11-12 weeks old) SD female rats weighing 200-230 g; 10 mature (13-15 weeks old) SD male rats weighing 250-300 g. At a ratio of […], the rats were paired in cages, on the second day the female rats' vaginal secretions were observed (smear technique) and those containing sperm were considered to be at day 0 of pregnancy (E0). […] L-NAME was given by two injections at a total dose of 60 mg/kg/day. Two hours after each injection, the pregnant rats received gastric feeding of distilled water, L-arginine or GLSs. The GLSs were provided by Kindway International Ltd./Holistol International Ltd., license number GANSPSP04040104. The L-arginine was purchased from the Amresco Company.
Preparation of histological materials. Some of the pregnant rats were anesthetized at E21 day with an i.p. injection of 1% pentobarbital (35 mg/kg). The embryos were removed from the uterus. Some were placed in a freezer dish and the hippocampal tissue was removed from the brains of the embryos, placed in an Eppendorf tube and stored at −80° C. to await testing. The rest of the embryonic brains were fixed in a 4% paraformaldehyde solution. […]

hippocampus microvessels = assay: Hippocampal microvessel density, vWF immunohistochemical staining, Weidner counting; assay type: in vivo, rat; conditions: dam given L-NAME plus gastric feeding E14-20, mean ± sd
Excerpt: as §1
(§2) Preparation of histological materials. Some of the pregnant rats were anesthetized at E21 day with an i.p. injection of 1% pentobarbital (35 mg/kg). The embryos were removed from the uterus. […]
Hippocampal microvessel density: The Weidner counting method was used to determine the microvessel standard [Weidner et al., Am J Pathol. […] Under a light microscope (200×), microvessel numbers were counted in five visual fields. […]

[2] = system: E21 day rat embryo hippocampal cells; assay: Flow cytometry of hippocampal cell cycle in E21 embryos of L-NAME gestational hypertension rats; assay type: in vivo; conditions: dam given L-NAME 60 mg/kg/day i.p. plus gastric feeding E14-20, mean ± sx
Excerpt: as §1, §2
Hippocampal tissue separated from E21 day rat embryos was placed in a culture dish and sheared into pieces, 0.01 mol/L phosphate buffered saline (PBS) was added and repeatedly triturated, filtered through a 100-mesh screen, and the single-cell suspension obtained was fixed in 75% alcohol at 4° C. to await testing. Before testing, the extracted cell suspension was centrifuged to remove the supernatant, 100 μL RNase (0.1 mg/L) added, placed at 37° C. for 30 min, after rinsing with normal saline, propidium iodine (PI) stain (0.05 mg/L, 0.03% Triton X-100 0.5 mL) was added, placed at 4° C. protected from light to react for 30 min, then measured. In flow cytometry, a 488 nm laser used Cell Fit software to collect 10,000 cells/specimen cell cycle data was analyzed and one-way ANOVA testing performed for statistical processing.

[3] = system: hippocampus CA1, CA3 and DG neurons; assay: Morphometric analysis: hippocampal cell layer thickness and neuron body count, neutral red staining; assay type: in vivo, rat; conditions: P30 rats, mean ± sd
Excerpt: as §1
Preparation of histological materials. Some of the pregnant rats were anesthetized at E21 day with an i.p. injection of 1% pentobarbital (35 mg/kg). The embryos were removed from the uterus. Some were placed in a freezer dish and the hippocampal tissue was removed from the brains of the embryos, placed in an Eppendorf tube and stored at −80° C. to await testing. The rest of the embryonic brains were fixed in a 4% paraformaldehyde solution. Another group of pregnant rats went into normal labor, and the young rats were fed and raised until 30 days of […] (P30). Some of the young rats received the preceding pentobarbital anesthesia and their hippocampal tissue was placed in a freezer dish and stored to await testing. The rest of the rats in the P30 group received pentobarbital anesthesia as above, their chests were opened and an aortic cannula inserted through the left ventricle. One group of young rats was first quickly perfused with normal saline and then 4% paraformaldehyde 0.1 mol/L phosphate buffer (PB) (pH 7.4). Then the fixed cerebral corona was continuously frozen and sectioned at a thickness of 15 μm. Sectioning started at the alveus of the hippocampus, one section every 300 μm, and six sections were taken from each brain, for a collection of six sets of sections.
Morphometric analysis. Various cell layer thicknesses from various areas of the hippocampus were measured and a neuron body count obtained. Under a low-magnification microscope, two visual fields were randomly selected from the CA1, CA3 and DG regions. Under a high-magnification microscope (200×), the cell layer thickness was measured and the number of nucleated neuron bodies counted. The cell layer thicknesses or body numbers are the averages of two visual fields.

## N=C(N)NCCC[C@H](N)C(=O)O [L-arg, L-arginine]
[1]
  BrdU positive cell counts at hippocampus dentate gyrus: 38.00 ± 1.04^c
Hippocampus microvessels; E21 embryos
  Microvessel density at the hippocampus, E21: 39.80 ± 4.79^e
Hippocampus microvessels; P30 rats
  Microvessel density at the hippocampus, P30: 75.25 ± 3.86^f
[2]
  Percentage of hippocampal cells in G1/G0 phase: 82.74 ± 2.75^h %
  Percentage of hippocampal cells in G2/M phase: 1.44 ± 0.44^i %
  Percentage of hippocampal cells in S phase: 15.34 ± 2.92^g %
[3]; CA1 area
  Hippocampal cell layer thickness CA1: 115.23 ± 9.49^m μm
  Neuron body counts CA1: 31.80 ± 1.15^n num
[3]; CA3 area
  Hippocampal cell layer thickness CA3: 90.64 ± 6.18^o μm
  Neuron body counts CA3: 23.00 ± 0.83^p num
[3]; DG area
  Hippocampal cell layer thickness DG: 64.87 ± 4.42^q μm
